Reference: patent US20080299228A1, “TOPICAL COMPOSITIONS COMPRISING A MACROMOLECULE AND METHODS OF USING SAME” (priority 2007, published 2008)

Experiment: Excipient compatibility screening with sodium thiosulfate (appearance)
Assay type: physicochemical
Details: added to the gel formulation
Protocol: During preformulation studies, sodium thiosulfate and methionine were identified as effective antioxidants for PTH(1-34). […] Sodium thiosulfate was assayed in the gel formulations listed in Table 21 in the absence of PTH(1-34) in order to identify which excipients were incompatible with sodium thiosulfate. Gel formulations were prepared according to the method described in Example 8. LDPE dropper bottles (5 mL) were purchased from IntraPac Group and over wrap foil (FR-2175) was obtained from Covalence Coated Products. The appearance of all samples was noted initially and after one week of storage at 20° C. protected from light.

O=S([O-])([O-])=S.[Na+].[Na+] [sodium thiosulfate]
compatibility with the gel formulation: a yellowish precipitate formed
